According to patent US10273267B2, “Beta-hairpin peptidomimetics as selective elastase inhibitors” (POLYPHOR AG, priority 2013, dated 2019):
Where a SMILES comes first, the peptide text is derived from it. [ ]: non-standard residue; d: D form. Oic = O=C(O)[C@@H]1C[C@@H]2CCCC[C@@H]2N1; Gly(octyl) = CCCCCCCC[C@H](N)C(=O)O; hTyr = N[C@@H](CCc1ccc(O)cc1)C(=O)O; Aad = N[C@@H](CCCC(=O)O)C(=O)O; β3hQ = NC(=O)CC[C@H](N)CC(=O)O; Pip = O=C(O)[C@@H]1CCCCN1; Aze = O=C(O)[C@@H]1CCN1

Experiments:
Type in all cases: biochemical
[1] = target: T1, human neutrophil elastase (Homo sapiens, UniProt P08246); experiment: Inhibition of human neutrophil elastase (hydrolysis of MeOSuc-AAPV-pNA); settings: substrate MeOSuc-AAPV-pNA 0.3 mM, enzyme 10 nM, 37° C., pH 8; read-out: Human neutrophil elastase (hNE) IC50
T1 construct: purchased Serva Electrophoresis, Germany
T1 sequence (P08246 30-267): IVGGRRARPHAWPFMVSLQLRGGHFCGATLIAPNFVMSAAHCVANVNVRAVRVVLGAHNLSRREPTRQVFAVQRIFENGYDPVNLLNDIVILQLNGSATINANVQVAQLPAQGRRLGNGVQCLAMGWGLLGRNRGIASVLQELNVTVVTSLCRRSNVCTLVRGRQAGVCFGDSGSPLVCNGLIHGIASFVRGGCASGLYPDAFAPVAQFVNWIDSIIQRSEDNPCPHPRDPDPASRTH
Protocol: 2.2 Inhibition of Human Neutrophil Elastase
The ability of the peptides of the invention to inhibit the hydrolysis activity of human neutrophil elastase (Serva Electrophoresis, Germany) using the synthetic tetrapeptidic substrate MeOSuc-AAPV-pNA (Bachem, Switzerland) was determined as follows:
(§1) The above substrate (0.3 mM) and human neutrophil elastase (10 nM) were incubated at 37° C. with serial dilutions of the peptides (1% DMSO final) in assay buffer (50 mM Tris, pH 8, 300 mM NaCl, 0.01% Tween20). The release of pNA was followed by monitoring the change in absorbance at 405 nm for 30 minutes. Control assays with the same assay set-up as above, but without peptide, ran linearly. The dose-response data were fitted to the 4-parameter Hill equation providing the IC50 value using Graphpad (Prism 5).

[2] = target: T2, human proteinase 3 (Homo sapiens, UniProt P24158); experiment: Inhibition of human proteinase 3 (substrate Boc-Ala-Ala-Nva-SBzl); settings: for hNE/hPr3 selectivity: ratio of hPr3 IC50 to hNE IC50; for IC50: substrate Boc-Ala-Ala-Nva-SBzl 1 mM, enzyme 10 nM, 37° C., pH7.4, read-out: Human proteinase 3 (hPr3) IC50
T2 construct: purchased Elastin Products Company, USA
T2 sequence (P24158 28-248): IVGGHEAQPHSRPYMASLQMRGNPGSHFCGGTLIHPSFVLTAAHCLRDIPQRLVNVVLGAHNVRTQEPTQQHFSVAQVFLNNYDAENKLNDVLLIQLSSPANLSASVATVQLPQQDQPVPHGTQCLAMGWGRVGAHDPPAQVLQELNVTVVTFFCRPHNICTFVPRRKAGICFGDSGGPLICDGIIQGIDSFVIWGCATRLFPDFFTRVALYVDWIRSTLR
Protocol: 2.4 Inhibition of Human Proteinase 3
The inactivation of human proteinase 3 (Elastin Products Company, USA) by the peptides of the invention using synthetic tripeptidic substrate Boc-Ala-Ala-Nva-SBzl (Elastin Products Company, USA) was determined as follows:
as §1, with “(1 mM), 4,4′-dithiodipyridine (250 μM)” for “(0.3 mM)”, “proteinase 3” for “neutrophil elastase”, “(0.5%” for “(1%”, “pH7.4, 150” for “pH 8, 300”, “reaction process” for “release of pNA”, “340” for “405”

[3] = target: T3, porcine pancreatic elastase (Sus scrofa, UniProt P00772); experiment: Inhibition of porcine pancreatic elastase (hydrolysis of MeOSuc-AAA-pNA); settings: for hNE/PPE selectivity: ratio of PPE IC50 to hNE IC50; for IC50: substrate MeOSuc-AAA-pNA 1 mM, enzyme 15 nM, 37° C., pH8, read-out: Porcine pancreatic elastase (PPE) IC50
T3 construct: purchased Sigma, USA
Protocol: 2.3 Inhibition of Porcine Pancreatic Elastase
The ability of the peptides of the invention to inhibit the hydrolysis activity of porcine pancreatic elastase (Sigma, USA) using the synthetic tripeptidic substrate MeOSuc-AAA-pNA (Bachem, Switzerland) was determined as follows:
as §1, with “(1” for “(0.3”, “porcine pancreatic” for “neutrophil”, “(15” for “(10”, “(0.5%” for “(1%”, “pH8, 100” for “pH 8, 300”

T3 sequence (P00772 27-266): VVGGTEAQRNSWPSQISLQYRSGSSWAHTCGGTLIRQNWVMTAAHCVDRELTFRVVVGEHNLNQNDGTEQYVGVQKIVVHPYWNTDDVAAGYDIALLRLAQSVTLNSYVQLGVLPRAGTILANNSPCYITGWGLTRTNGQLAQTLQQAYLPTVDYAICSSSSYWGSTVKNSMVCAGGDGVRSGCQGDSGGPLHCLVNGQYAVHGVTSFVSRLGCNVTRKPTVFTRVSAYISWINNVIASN

| SMILES | IC50 [1] [nM] | hNE/hPr3 selectivity [2] | IC50 [2] [nM] | hNE/PPE selectivity [3] | IC50 [3] [nM] |
| --- | --- | --- | --- | --- | --- |
| CCCCCCCC[C@@H]1NC(=O)[C@@H]2CCCN2C(=O)[C@H]2CCCN2C(=O)[C@H](CCCC(N)=O)NC(=O)[C@H](CCCCN)NC(=O)[C@H](CCC(N)=O)NC(=O)[C@@H]2CCCN2C(=O)[C@@H]2CCCN2C(=O)[C@H]([C@@H](C)CC)NC(=O)[C@H](CO)NC(=O)[C@H](C)NC(=O)[C@H]([C@@H](C)O)NC(=O)[C@H](CCC(=O)O)NC1=O [Example 5, Cyclo(-OctGly-Glu-Thr-Ala-Ser-Ile-Pro-Pro-Gln-Lys-hGln-^DPro-Pro-)] (cyclo([Gly(octyl)]ETASIPPQK[Aad](NH2)[dP]P)) | 9.9 | 237 | 2350 | 161 | 1590 |
| CCCCCCCC[C@@H]1NC(=O)[C@H](C(C)C)NC(=O)[C@@H](Cc2ccc(O)cc2)NC(=O)[C@H]([C@@H](C)O)NC(=O)[C@H](CCCCN)NC(=O)[C@H](CCC(N)=O)NC(=O)[C@@H]2CCCN2C(=O)[C@@H]2CCCN2C(=O)[C@H]([C@@H](C)CC)NC(=O)[C@H](CO)NC(=O)[C@H](C)NC(=O)[C@H]([C@@H](C)O)NC(=O)[C@H](CCC(=O)O)NC1=O [Example 23, Cyclo(-OctGly-Glu-Thr-Ala-Ser-Ile-Pro-Pro-Gln-Lys-Thr-^DTyr-Val-)] (cyclo([Gly(octyl)]ETASIPPQKT[dY]V)) | 6 | 1717 | 10300 | 1717 | 10300 |
| CC[C@H](C)[C@@H]1NC(=O)[C@H](CO)NC(=O)[C@H](C)NC(=O)[C@H]([C@@H](C)O)NC(=O)[C@H](C(C)C)NC(=O)[C@H](CCCNC(=N)N)NC(=O)[C@@H]2CCCN2C(=O)[C@H]2CCCN2C(=O)[C@H]([C@@H](C)O)NC(=O)[C@H](CCCCN)NC(=O)[C@H](CCC(N)=O)NC(=O)[C@@H]2C[C@@H]3CCCC[C@@H]3N2C(=O)[C@@H]2CCCN2C1=O [Example 41] (cyclo(RVTASIP[Oic]QKT[dP]P)) | 7.9 | >12658 | > 100000 | >12658 | > 100000 |
| CC[C@H](C)[C@@H]1NC(=O)[C@H](CO)NC(=O)[C@H](C)NC(=O)[C@H]([C@@H](C)O)NC(=O)[C@H](CCC(=O)O)NC(=O)[C@H](CCCNC(=N)N)NC(=O)[C@@H]2CCCN2C(=O)[C@H]2CCCN2C(=O)[C@H]([C@@H](C)O)NC(=O)[C@H](CCCCN)NC(=O)[C@H](CCC(N)=O)NC(=O)[C@@H]2C[C@@H]3CCCC[C@@H]3N2C(=O)[C@@H]2CCCN2C1=O [Example 16, Cyclo(-Arg-Glu-Thr-Ala-Ser-Ile-Pro-Oic-Gln-Lys-Thr-^DPro-Pro-)] (cyclo(RETASIP[Oic]QKT[dP]P)) | 15 | >6667 | > 100000 | >6667 | > 100000 |
| CCCCCCCC[C@@H]1NC(=O)[C@@H]2CCCN2C(=O)[C@H]2CCCN2C(=O)[C@H]([C@@H](C)O)NC(=O)[C@H](CCCCN)NC(=O)C[C@H](CCC(N)=O)NC(=O)[C@@H]2CCCN2C(=O)[C@@H]2CCCN2C(=O)[C@H]([C@@H](C)CC)NC(=O)[C@H](CO)NC(=O)[C@H](C)NC(=O)[C@H]([C@@H](C)O)NC(=O)[C@H](CCC(=O)O)NC1=O [Example 36, Cyclo(-OctGly-Glu-Thr-Ala-Ser-Ile-Pro-Pro-[H-β^3-HGln-OH]-Lys-Thr-^DPro-Pro-)] (cyclo([Gly(octyl)]ETASIPP[β3hQ]KT[dP]P)) | 16.2 | 364 | 5900 | 685 | 11100 |

Further lines, results first:

| IC50 [1] [nM] | hNE/hPr3 selectivity [2] | IC50 [2] [nM] | hNE/PPE selectivity [3] | IC50 [3] [nM] | SMILES |
| --- | --- | --- | --- | --- | --- |
| 7.1 | 127 | 900 | 324 | 2300 | CCCCCCCC[C@@H]1NC(=O)[C@@H]2CCCN2C(=O)[C@H]2CCCN2C(=O)[C@H]([C@@H](C)O)NC(=O)[C@H](CCCCN)NC(=O)[C@H](CCC(N)=O)NC(=O)[C@@H]2CCCCN2C(=O)[C@@H]2CCCN2C(=O)[C@H]([C@@H](C)CC)NC(=O)[C@H](CO)NC(=O)[C@H](C)NC(=O)[C@H]([C@@H](C)O)NC(=O)[C@H](CCC(=O)O)NC1=O [Example 45, Cyclo(-OctGly-Glu-Thr-Ala-Ser-Ile-Pro-Pip-Gln-Lys-Thr-^DPro-Pro-)] (cyclo([Gly(octyl)]ETASIP[Pip]QKT[dP]P)) |
| 2.7 | 407 | 1100 | 148 | 400 | CCCCCCCC[C@@H]1NC(=O)[C@@H]2CCCN2C(=O)[C@H]2CCCN2C(=O)[C@H](CC(N)=O)NC(=O)[C@H](CCCCN)NC(=O)[C@H](CCC(N)=O)NC(=O)[C@@H]2CCCN2C(=O)[C@@H]2CCCN2C(=O)[C@H]([C@@H](C)CC)NC(=O)[C@H](CO)NC(=O)[C@H](C)NC(=O)[C@H]([C@@H](C)O)NC(=O)[C@H](CCc2ccc(O)cc2)NC1=O [Example 48] (cyclo([Gly(octyl)][hTyr]TASIPPQKN[dP]P)) |
| 7.1 | 310 | 2200 | 268 | 1900 | CCCCCCCC[C@@H]1NC(=O)[C@@H]2CCCN2C(=O)[C@H]2CCCN2C(=O)[C@H]([C@@H](C)O)NC(=O)[C@H](CCCCN)NC(=O)[C@H](CCC(N)=O)NC(=O)[C@@H]2CCN2C(=O)[C@@H]2CCCN2C(=O)[C@H]([C@@H](C)CC)NC(=O)[C@H](CO)NC(=O)[C@H](C)NC(=O)[C@H]([C@@H](C)O)NC(=O)[C@H](CCC(=O)O)NC1=O [Example 46, Cyclo(-OctGly-Glu-Thr-Ala-Ser-Ile-Pro-Azt-Gln-Lys-Thr-^DPro-Pro-)] (cyclo([Gly(octyl)]ETASIP[Aze]QKT[dP]P)) |
| 9.6 | >10417 | > 100000 | >10417 | > 100000 | CC[C@H](C)[C@@H]1NC(=O)[C@H](CO)NC(=O)[C@H](C)NC(=O)[C@H]([C@@H](C)O)NC(=O)[C@H](C(C)C)NC(=O)[C@H](CCCNC(=N)N)NC(=O)[C@H](CCC(=O)O)NC(=O)[C@H]2CCCN2C(=O)[C@H]([C@@H](C)O)NC(=O)[C@H](CCCCN)NC(=O)[C@H](CCC(N)=O)NC(=O)[C@@H]2C[C@@H]3CCCC[C@@H]3N2C(=O)[C@@H]2CCCN2C1=O [Example 44, Cyclo(-Arg-Val-Thr-Ala-Ser-Ile-Pro-Oic-Gln-Lys-Thr-^DPro-Glu-)] (cyclo(RVTASIP[Oic]QKT[dP]E)) |
| 2.7 | >237037 | > 100000 | >237037 | > 100000 | CC[C@H](C)[C@@H]1NC(=O)[C@H](CO)NC(=O)[C@H](C)NC(=O)[C@H]([C@@H](C)O)NC(=O)[C@H](CCc2ccc(O)cc2)NC(=O)[C@H](CCCNC(=N)N)NC(=O)[C@H](CCC(=O)O)NC(=O)[C@H]2CCCN2C(=O)[C@H]([C@@H](C)O)NC(=O)[C@H](CCCCN)NC(=O)[C@H](CCC(N)=O)NC(=O)[C@@H]2C[C@@H]3CCCC[C@@H]3N2C(=O)[C@@H]2CCCN2C1=O [Example 43, Cyclo(-Arg-hTyr-Thr-Ala-Ser-Ile-Pro-Oic-Gln-Lys-Thr-^DPro-Glu-)] (cyclo(R[hTyr]TASIP[Oic]QKT[dP]E)) |
